Reference: patent US8404683B2, “Inhibitors of the interaction between MDM2 and P53” (Janssen Pharmaceutical N.V., priority 2004, dated 2013)

What was measured:
U87MG cells = assay: Proliferation assay (MTT-based) on U87MG tumour cells; settings: Homo sapiens, U-87 MG, 96 h, 4 days of incubation, negative log value of the IC50-value, read-out: cell proliferation pIC50 (converted)
Procedure, shortened: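 Human glioblastoma U87MG cells (wild-type p53) exposed to compound for 4 days at ≤0.1% DMSO, then MTT added for 2 h at 37 °C and absorbance read at 540 nm. Growth expressed as % of untreated control; IC50 by probit analysis, reported as pIC50.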

Row | melting point | IC50 (U87MG cells) | SMILES
1 | 154 °C | > 10 µM | N#Cc1ccc2[nH]cc(C(O)C(=O)Nc3ccc(Nc4ccncc4)cc3)c2c1 (stereo not shown) [Compound 113]
2 | 211 °C | > 10 µM | c1ccc2c(CCNc3ccc(Nc4ncnc5[nH]ccc45)cc3)c[nH]c2c1 [Compound 117]
